Source: US20170166561A1, “QUINUCLIDINE COMPOUNDS FOR MODULATING ALPHA7-NICOTINIC ACETYLCHOLINE RECEPTOR ACTIVITY” (Alpharmagen, LLC, priority 2014, published 2017)
Structures can show the parent of a compound that is named as a salt. Where two headings read alike, the source gives them in different places.

Tests used:
[1] = Human plasma stability (Protocols 1 and 2); assay type: in vitro ADME; conditions: human
Method: Example B6: Human Plasma Stability
Studies were carried out in human plasma. All plasma was obtained from Bioreclamation and collected on sodium heparin. Plasma was adjusted to pH 7.4. A DMSO stock was first prepared for the test compound. An aliquot of the DMSO solution was dosed into 1 mL of plasma, which had been pre-warmed to 37° C., at a final test compound concentration of 1 μM. The vials were kept in a benchtop Thermomixer® for the duration of the experiment. Aliquots (100 μL) were taken at each time point (0, 15, 30, 60, and 120 minutes) and added to 96-well plates which had been pre-filled with 300 μL of acetonitrile. Samples were stored at 4° C. until the end of the experiment. After the final time point was sampled, the plate was mixed and then centrifuged at 3,000 rpm for 10 minutes. Aliquots of the supernatant were removed, diluted 1:1 into distilled water, and analyzed by LC-MS/MS. The peak area response ratio to internal standard (PARR) of the compound at 15, 30, 60 and 120 minutes was compared to the PARR at time 0 to determine the percent of test compound remaining at each time point. Half-lives were calculated using GraphPad software, fitting to a single-phase exponential decay equation.
Studies were carried out in plasma. Plasma was prepared under approval of IRB and IACUC on sodium heparin. The pH of plasma was monitored and used within the range of pH 7.4 to pH 8.0. DMSO stocks were prepared for the test compounds. Aliquots of the DMSO solutions were diluted to 0.05 mM by 0.05 mM Sodium phosphate buffer with 0.5% BSA. Then 10 μL of 0.05 mM solutions were dosed into 90 μL of plasma in duplicates (n=2), which had been pre-warmed to 37° C., at a final test compound concentration of 5 μM. The plates were kept in a 37° C. water bath for the duration of the experiment. At each time point (0, 5, 15, 30, 45, 60, and 120 minutes), 400 μL of acetonitrile was added into corresponding wells. After the final time point was sampled, the plates were shaken at the vibrator (IKA, MTS 2/4) for 10 min (600 rpm/min) and then centrifuged at 5594 g for 15 min (Thermo Multifuge×3R). Aliquots of the supernatant were removed, diluted 1:1 into distilled water, and analyzed by LC-MS/MS. The peak area response ratio to internal standard (PARR) of the compounds at 5, 15, 30, 45, 60, and 120 minutes was compared to the PARR at time 0 to determine the percent of test compound remaining at each time point. Half-lives were calculated using Excel software, fitting to a single-phase exponential decay equation.

[2] = target: T1, Human α7 NAChR (Homo sapiens, UniProt P36544); experiment: Electrophysiology screen at 1 μM in Xenopus laevis oocytes; assay type: cell-based; conditions: test compound 1 μM; Imax = maximal current produced by 3 mM ACh; holding voltage −70 mV
T1 construct: TriLink (mRNA); Ecocyte Bioscience (oocytes); host or cells: Xenopus laevis oocytes injected with mRNA
Method: Example B2: Electrophysiology Screen at 1 μM in Xenopus Laevis Oocytes
Human α7 NAChR mRNA Preparation:
Human α7 NAChR plasmid was prepared by GeneWiz from accession NM_000746.5. Human α7 NAChR mRNA was prepared by TriLink at a concentration near 1 μg/μL. The human α7 NAChR mRNA was diluted in sterile water to a working concentration near 10 ng/μL.
Xenopus laevis Oocyte Injection and Maintenance:
Oocytes were obtained from Xenopus laevis frogs and treated with collagenase by Ecocyte Bioscience. Oocytes were injected with the working concentration of α7 NAChR mRNA at a volume of 50 nL for a total of approximately 0.5 ng of α7 NAChR mRNA. Oocytes were maintained in Barth's solution at a temperature of 16° C. The Barth's solution was replaced daily.
Electrophysiology Measurement:
Two-electrode voltage clamp recordings were made 3-14 days following mRNA injections at a holding voltage of −70 mV. […]
In all oocyte recordings, drug and wash solutions were applied using a custom-designed microcapillary “linear array” which allows rapid application of agonists. Currents were recorded on a PC-based computer (PClamp, Molecular Devices, Sunnyvale, Calif.). […]
Stocks of test compounds were prepared in DMSO. […] The test solution was perfused onto the oocyte until a peak current was recorded. […]

[3] = target: rat brain nicotinic receptor (α7 NAChR, α-Bungarotoxin binding site) (Rattus norvegicus, UniProt Q05941)
[4] = Metabolic stability assay in human liver microsomes (HLM; Protocols 1 and 2); assay type: in vitro ADME; conditions: 1 μM
Method: Example B4: Metabolic Stability Assays
Studies were carried out in human and rat liver microsomes (“HLM” and “RLM,” respectively). Human and rat liver microsomes were purchased from BD Gentest. DMSO stocks were prepared for the test compounds. Aliquots of the DMSO solutions were diluted to 0.5 mM by acetonitrile, then further diluted by liver microsomes/buffer to 1.5 μM. 30 μL of 1.5 μM solutions were mixed with 15 μL of 6 mM NADPH, which had been pre-warmed to 37° C., at a final test compound concentration of 1 μM. The plates were kept in a 37° C. water bath for the duration of the experiment. At each time point (0, 5, 15, 30, 45 minutes), 135 μL of acetonitrile was added into corresponding wells. After the final time point was sampled, the plates were shaken at a vibrator (IKA, MTS 2/4) for 10 min (600 rpm/min) and then centrifuged at 5594 g for 15 min (Thermo Multifuge×3R). Aliquots of the supernatant were removed, diluted 1:1 into distilled water, and analyzed by LC-MS/MS. The peak area response ratio to internal standard (PARR) of the compounds at 5, 15, 30, 45 minutes was compared to the PARR at time 0 to determine the percent of test compound remaining at each time point. Half-lives were calculated using Excel software, fitting to a single-phase exponential decay equation.
Studies were carried out in human and rat liver microsomes. Buffer solutions were prepared as follows: Buffer A: 1.0 L of 0.1 M monobasic Potassium Phosphate buffer containing 1.0 mM EDTA; Buffer B: 1.0 L of 0.1 M Dibasic Potassium Phosphate buffer containing 1.0 mM EDTA; Buffer C: 0.1 M Potassium Phosphate buffer, 1.0 mM EDTA, pH 7.4 by titrating 700 mL of buffer B with buffer A while monitoring with a pH meter.
Reference compound (Ketanserin) and test compound spiking solutions were prepared as follows: 500 μM spiking solution: add 10 μL of 10 mM DMSO stock solution into 190 μL ACN; 1.5 μM spiking solution in microsomes (0.75 mg/mL): add 1.5 μL of 500 μM spiking solution and 18.75 μL of 20 mg/mL liver microsomes into 479.75 μL of Buffer C.
NADPH stock solution (6 mM) was prepared by dissolving NADPH into buffer C.
Assay procedure: 30 μL of 1.5 μM spiking solution containing 0.75 mg/mL microsomes solution was dispensed to the wells designated for 45 min, 30 min, 15 min, 5 min, and 0 min. The plate was pre-incubated at 37° C. for 10 minutes. 15 μL of NADPH stock solution (6 mM) was added to the wells designated as Time 45, and the timer was started. At 30 min, 15 min, and 5 min, 15 μL NADPH stock solution (6 mM) was added to the wells, respectively. At the end of incubation (0 min), 135 tit of ACN containing IS was added to all the wells. Then 15 tit of NADPH stock solution (6 mM) was added to the wells designated as Time 0. After quenching, the reaction mixtures were centrifuged at 3220 g for 10 min. Following centrifugation, 50 μL of the supernatant was transferred from each well into a 96-well sample plate containing 50 μL of ultra-pure water (Millipore) for LC/MS analysis. The peak area response (PARR) ratio to internal standard of the compounds at 5, 15, 30, and 45 minutes was compared to the PARR at time 0 to determine the percent of test compound remaining at each time point. Half-lives were calculated using Excel software, fitting to a single-phase exponential decay equation.

[5] = Protocol 2, plasma pH 7.4 to 8.0, 5 μM, 37° C., read-out: T1/2
[6] = Protocol 1, human liver microsomes, NADPH, 37° C.

rat brain nicotinic receptor (α7 NAChR, α-Bungarotoxin binding site), sequence (Q05941 23-502): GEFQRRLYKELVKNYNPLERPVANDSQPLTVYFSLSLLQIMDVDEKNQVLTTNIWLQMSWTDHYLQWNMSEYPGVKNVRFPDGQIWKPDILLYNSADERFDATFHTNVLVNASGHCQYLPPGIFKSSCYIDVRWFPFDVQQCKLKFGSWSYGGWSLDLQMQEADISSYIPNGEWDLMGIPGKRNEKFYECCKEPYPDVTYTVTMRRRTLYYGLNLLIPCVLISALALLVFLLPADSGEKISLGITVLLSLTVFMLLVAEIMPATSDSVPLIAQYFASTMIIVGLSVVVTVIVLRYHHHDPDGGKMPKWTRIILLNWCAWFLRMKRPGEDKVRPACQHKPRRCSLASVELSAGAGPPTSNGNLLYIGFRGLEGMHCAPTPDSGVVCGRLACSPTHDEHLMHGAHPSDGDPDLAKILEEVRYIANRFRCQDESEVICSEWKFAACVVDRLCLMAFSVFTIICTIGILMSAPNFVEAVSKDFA
T1 sequence (P36544 23-502): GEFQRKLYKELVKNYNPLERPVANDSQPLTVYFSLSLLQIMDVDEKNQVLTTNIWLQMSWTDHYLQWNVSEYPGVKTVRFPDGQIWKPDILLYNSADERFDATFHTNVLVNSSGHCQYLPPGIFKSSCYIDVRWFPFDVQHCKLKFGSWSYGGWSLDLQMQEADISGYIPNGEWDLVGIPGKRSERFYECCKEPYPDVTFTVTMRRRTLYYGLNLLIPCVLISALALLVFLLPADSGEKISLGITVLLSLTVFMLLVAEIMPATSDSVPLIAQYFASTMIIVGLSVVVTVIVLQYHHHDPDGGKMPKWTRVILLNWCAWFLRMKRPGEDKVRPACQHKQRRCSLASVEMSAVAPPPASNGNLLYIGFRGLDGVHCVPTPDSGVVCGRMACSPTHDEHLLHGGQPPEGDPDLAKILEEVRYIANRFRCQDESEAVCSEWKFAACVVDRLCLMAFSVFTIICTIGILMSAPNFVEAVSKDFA

| SMILES | half-life at 5 μM [1, 5] | HLM [4, 6] | HLM ([4]; human, microsomes) | half-life at 5 μM ([1]; plasma, pH 7.4) | further results |
| --- | --- | --- | --- | --- | --- |
| COc1cc2c(C(=O)OCC34CCN(CC3)CC4)c[nH]c2cc1C.Cl [Compound 79, quinuclidin-4-ylmethyl 5-methoxy-6-methyl-1H-indole-3-carboxylate hydrochloride] | 2.71 h |  |  |  | I/Imax [2]: 0.259; IC50 [3]: 159 nM; Ki [3]: 137 nM |
| COc1cc2c(C(=O)OCC34CCN(CC3)CC4)c[nH]c2cc1F [Compound 57, quinuclidin-4-ylmethyl 6-fluoro-5-methoxy-1H-indole-3-carboxylate] | 5.47 h | 0 mL/min/kg |  |  |  |
| Cc1cc2c(C(=O)OCC34CCN(CC3)CC4)c[nH]c2cc1Cl [Compound 78, quinuclidin-4-ylmethyl 6-chloro-5-methyl-1H-indole-3-carboxylate] |  |  | 0 mL/min/kg | 4.77 h |  |
| Cl.O=C(OCC12CCN(CC1)CC2)c1c[nH]c2cc(O)c(F)cc12 [Compound 59, Quinuclidin-4-ylmethyl 5-fluoro-6-hydroxy-1H-indole-3-carboxylate hydrochloride] | 2.27 h | 0 mL/min/kg |  |  |  |
| Cc1cc(O)cc2[nH]cc(C(=O)OCC34CCN(CC3)CC4)c12 [Compound 83, quinuclidin-4-ylmethyl 6-hydroxy-4-methyl-1H-indole-3-carboxylate] |  |  | 2.7 mL/min/kg | 6.48 h |  |
| Cc1ccc2[nH]cc(C(=O)OCC34CCN(CC3)CC4)c2c1C [Compound 70, quinuclidin-4-ylmethyl 4,5-dimethyl-1H-indole-3-carboxylate] |  |  | 0 mL/min/kg | 4.16 h |  |
| COc1cc2c(C(=O)OCC34CCN(CC3)CC4)c[nH]c2cc1Cl [Compound 69, quinuclidin-4-ylmethyl 6-chloro 5-methoxy-1H-indole-3-carboxylate, hydrochloride] |  |  | 8.8 mL/min/kg | 6.93 h |  |
| Cc1cc(F)cc2[nH]cc(C(=O)OCC34CCN(CC3)CC4)c12 [Compound 44, quinuclidin-4-ylmethyl 6-fluoro-4-methyl-1H-indole-3-carboxylate] |  |  | 3.5 mL/min/kg |  | T1/2 ([1]; plasma, pH 7.4): ∞ |
| COc1ccc2c(C(=O)OCC34CCN(CC3)CC4)c[nH]c2c1 [Compound 10, quinuclidin-4-ylmethyl 6-methoxy-1H-indole-3-carboxylate] |  |  |  |  | IC50 [3]: 321 nM; Ki [3]: 279 nM |
| Cl.O=C(OCC12CCN(CC1)CC2)c1c[nH]c2cccc(C(F)(F)F)c12 [Compound 80, Quinuclidin-4-ylmethyl 4-(trifluoromethyl)-1H-indole-3-carboxylate hydrochloride] | 10.9 h |  |  |  | I/Imax [2]: 0.032 |
| COc1cc2[nH]cc(C(=O)OCC34CCN(CC3)CC4)c2cc1OC [Compound 87, quinuclidin-4-ylmethyl 5,6-dimethoxy-1H-indole-3-carboxylate] | 2.41 h | 0.5 mL/min/kg |  |  |  |
| Cc1cc2[nH]cc(C(=O)OCC34CCN(CC3)CC4)c2cc1Cl.Cl [Compound 66, quinuclidin-4-ylmethyl 5-chloro-6-methyl-1H-indole-3-carboxylate hydrochloride] | 5.26 h | 0 mL/min/kg |  |  |  |
